Measurements taken from patent publication US4849428A, “Cyclic anti-inflammatory derivatives of di-tert-butylphenol compounds, compositions and use” (The Procter & Gamble Company, priority 1987, dated 1989).

Tests used:
[1] = tested on: Carrageenan Rat Paw Edema; assay: Carrageenan Rat Paw Edema Test; assay type: in vivo, Male Sprague-Dawley rats; conditions: for Percent Inhibition at 100 mg/kg dose p.o.: 100 mg/kg p.o. 1 h before carrageenan, paw volume 4 h after carrageenan, relative to control; for ED35: oral, by regression analysis, read-out: ID35
Procedure: Carrageenan Rat Paw Edema Test
Male Sprague-Dawley rats (Charles River Laboratories) are weighed and food fasted overnight. The animals are then divided into four to six groups of six animals each according to body weights (average about 145 g) so that each group has about the same average body weight (within 10 g).
The following morning animals are dosed with the test compound and then placed in individual cages. For oral dosing, the drug is suspended in 0.5% methyl cellulose with 2% Tween 80, and delivered via stomach tube in a 5 ml volume.
Paw volumes (0 time) are determined on both hind paws with a mercury displacement device equipped with a transducer and digitizer. One hour after dosing the test compound, the animals are placed in a plastic restrainer and 50 ul of a 1% (w/w) carrageenan solution in 0.9% saline is injected into the ventral surface of the left rear paw. Four hours after the carrageenan injection, the paw volumes are again determined.
The results are expressed as percent inhibition of the mean paw volume of the test group relative to the control group. Statistical differences are determined by one way analysis of variance. ID35 values are determined by regression analysis.

[2] = tested on: rheumatoid arthritis or osteoarthritis; assay: Oral capsules in patients with rheumatoid arthritis or osteoarthritis; assay type: in vivo, patient; conditions: capsule, orally once a day
Procedure: Capsules are prepared by conventional methods, comprised as follows: […]

osteoarthritis = assay: Oral tablets in patients with osteoarthritis; assay type: in vivo, patient; conditions: tablet, twice daily
Procedure: (§1) Tablets are prepared by conventional methods, such as mixing and direct compaction, formulated as follows: […]

rheumatoid arthritis = assay: Oral tablets in patients with rheumatoid arthritis; assay type: in vivo, patient; conditions: tablet, orally two times daily
Procedure: as §1

## C#CCCCC(=O)c1cc(C(C)(C)C)c2c(c1)C(C)(C)C(O)O2 (stereo not drawn) [Compound 13C]
[1]
  Percent Inhibition at 100 mg/kg dose p.o.: 53.2%
  ED35: 12.9 mg/kg

## C#CC(O)CCC(=O)c1cc(C(C)(C)C)c2c(c1)C(C)(C)CO2 (stereo not drawn) [Compound 8D]
[1]
  Percent Inhibition at 100 mg/kg dose p.o.: 60.8%
  ED35: 1.6 mg/kg

## C#CCCCC(=O)c1cc(C(C)(C)C)c2c(c1)C(C)(C)CO2 [Compound 8C]
[2]
  reduction of symptomology in rheumatoid arthritis or osteoarthritis patient: substantially reduces the symptomology
[1]
  Percent Inhibition at 100 mg/kg dose p.o.: 48.8%
  ED35: 2.4 mg/kg
osteoarthritis
  benefit in osteoarthritis patient: significant benefit
Rheumatoid arthritis
  reduction of inflammation in rheumatoid arthritis patient: significantly reduces the inflammation
